# Assay results as given in patent publication US12152060B2, “Interleukin-2 variants and methods of uses thereof” (Cugene Inc, priority 2018, dated 2024).
# Tests used:
# [1] = system: STAT5 phosphorylation in CD4+ Treg cells (CD4+/Foxp3+/CD25high); assay: STAT5 phosphorylation in CD4+ Treg cells, human PBMC assay by FACS; assay type: cell-based; conditions: pSTAT5, Treg versus Tconv
# Source text: Single amino acid substitutions were introduced to IL-2 at positions corresponding to amino acids interacting with receptor subunit(s) β or γ or By. These substitutions were aimed to reduce IL-2 signaling capacity through the intermediate affinity IL-2Rβγ complex and confer signaling specificity from the high affinity IL-2Rαβγ. IL-2 variants containing single amino acid substitutions were examined for their ability to differentially stimulate STAT5 phosphorylation in CD4 positive Treg and Tconv cells. STAT5 is known to be involved in the downstream signaling cascade upon IL-2 binding to the transmembrane IL-2 receptors. The phosphorylation of STAT5 in defined lymphocyte subpopulations was measured using fresh human peripheral blood mononuclear cells (PBMC) and the forkhead transcription factor FOXP3 was used to identify the Treg population in FACS analysis.
# Briefly, human PBMC were isolated by Ficoll-Hypaque centrifugation from the buffy coat of a healthy donor. PBMC were starved in serum-free MACS buffer at 4° C. for 1 hour. 2×10^5 PBMC were then treated with serial dilutions of test compounds for 30 min at 37° C. Cells were fixed and permeabilized with Foxp3/Transcription Factor Staining Buffer Set (EBIO) by incubating with 1× Foxp3 fixation/permeabilization working solution for 30 minutes and washing with 1× permeabilization buffer. Cells were additionally fixed with Cytofix buffer and permeabilized with Perm Buffer III (BD Biosciences) and then washed. After blocking Fc receptors by adding human TruStain™ FcX (1:50 dilution), cells were stained with a mixture of anti-CD25-PE, anti-FOXP3-APC, anti-pSTAT5-FITC, and anti-CD4-PerCP-Cy5.5 antibodies at concentrations recommended by the manufacturer for 45 minutes at room temperature. Cells were collected by centrifugation, washed, resuspended in FACS buffer, and analyzed by flow cytometry. The flow cytometry data was gated into CD4+/Foxp3+/CD25^high and CD4+/Foxp3−/CD25^low groups for the Treg and CD4 conventional T cell subsets, respectively. Data are expressed as a percent of pStat5 positive cells in gated population.
# [2] = system: regulatory T cells (CD4+CD25+FoxP3+ T cells), effector T cells and NK cells; assay: Treg versus effector T and NK cell proliferation and expansion in mice after a single subcutaneous injection; assay type: in vivo, mouse; conditions: 0.3 mg/kg s.c. single dose, C57/BL6 mice
# Method: IL-2 variant Fc fusion proteins were administered to mice and their ability to preferentially proliferate and expand regulatory T cells (CD4+CD25+FoxP3+ T cells) over effector T cells and NK cells were determined in vivo.
# Female C57/BL6 mice (7-week old) were received from Charles River Laboratory and acclimated in house for at least 7 days before the study. Vehicle (PBS), 0.3 mg/kg of each test compounds, or IL-2 benchmark compounds were subcutaneously administered to mice on day 0. Peripheral blood samples were collected into heparin-treated tubes on days 3, 5 and 7 post-treatment. Each group contained 6 mice and baseline blood was collected 2 days prior to the treatment (day-2). After red blood cell lysis, total viable mononuclear blood cells were counted by trypan blue dead cell exclusion method and proceeded to intracellular staining for immune cell phenotype and Ki67 proliferation markers using flow cytometric analysis. Cells were stained separately with two panels of antibodies as listed: 1) anti-mouse Foxp3-FITC, Ki67-PE, anti-mouse CD25-APC and anti-mouse CD4-Percpcy5.5 (1:50 dilution) for CD4+T-regulatory cells (Treg); 2) anti-mouse CD3-FITC, Ki67-PE, anti-mouse CD335-APC and anti-mouse CD8-Percpcy5.5 (1:50 dilution) for CD8+T and NK cells.
substance,measurement,setting,value
P-0511: Fc fusion protein of IL-2 variant L19H/S125I/Q126E; SEQ ID NO: 198,window for selective activation of Treg cells over CD4+ Tconv cells (in words),[1],further widened the Treg selectivity window
same,Ki67 stimulation on CD8 T cells and NK cells,[2],mild Ki67 stimulation
same,"expansion of CD4+ Tconv cells, CD8 T cells or NK cells",[2],No significant expansion
same,"Treg cell proliferation and expansion (Ki67 positive Treg, % Treg over CD4+ T cells or lymphocytes)","[2]; days 3, 5, 7",stronger in vivo efficacy
